# Test results taken from PMC4890880 (ACS infectious diseases, 2016).
# Like-named read-outs stand apart in the source and are kept apart here.
# Key:
# [1] = test system: Plasmodium berghei (Pb-Luc) exoerythrocytic-stage parasites; settings: for normalised signal at concentration 10 (first series): concentration 10, first series of dose columns; for normalised signal at concentration 10 (second series): concentration 10, second series of dose columns; for IC50: read-out: PbLuc_IC50; for normalized signal at concentration 0.000508053 / normalized signal at concentration 0.00152416 / normalized signal at concentration 0.00457247 / normalized signal at concentration 0.0137174 / normalized signal at concentration 0.0411523 / normalized signal at concentration 0.123457 / normalized signal at concentration 0.37037 / normalized signal at concentration 1.11111 / normalized signal at concentration 3.33333 / normalized signal at concentration 10: fraction of control
# HepG2-A16-CD81EGFP cells = settings: for IC50: read-out: Tox_IC50, HepG2 cytotoxicity
# [2] = sheet "2nd round", Broad compounds, dose response top concentration 10
# [3] = sheet 2nd round, Pb-Luc exoerythrocytic stage, 10-point dose response, top concentration 10
# [4] = second series of columns (replicate)
# [5] = sheet 2nd round, maximal inhibition in dose response
structure (smiles),measurement,setting,value
O=C(NCc1ccc2c(c1)OCO2)[C@@H]1[C@@H](CO)[C@@H]2Cn3c(cccc3=O)[C@H]1N2Cc1cncnc1 [BRD-K31004267-001-01-6],normalised signal at concentration 0.000508053 (first series),[1],0.9455
same,normalised signal at concentration 0.000508053 (second series),[1],0.7294
same,normalised signal at concentration 0.00152416 (first series),[1],0.9922
same,normalised signal at concentration 0.00152416 (second series),[1],1.083
same,normalised signal at concentration 0.00457247 (first series),[1],0.9907
same,normalised signal at concentration 0.00457247 (second series),[1],0.8279
same,normalised signal at concentration 0.0137174 (first series),[1],0.9424
same,normalised signal at concentration 0.0137174 (second series),[1],0.9304
same,normalised signal at concentration 0.0411523 (first series),[1],0.8128
same,normalised signal at concentration 0.0411523 (second series),[1],1.152
same,normalised signal at concentration 0.123457 (first series),[1],0.8401
same,normalised signal at concentration 0.123457 (second series),[1],1.066
same,normalised signal at concentration 0.37037 (first series),[1],1.129
same,normalised signal at concentration 0.37037 (second series),[1],0.8899
same,normalised signal at concentration 1.11111 (first series),[1],0.9661
same,normalised signal at concentration 1.11111 (second series),[1],0.8895
same,normalised signal at concentration 3.33333 (first series),[1],0.7673
same,normalised signal at concentration 3.33333 (second series),[1],0.9284
same,normalised signal at concentration 10 (first series),[1],1.039
same,normalised signal at concentration 10 (second series),[1],0.9564
same,IC50,[1]; [2],> 10 µM
same,PbLuc_max_inhibition (%),"[1]; sheet ""2nd round""",27%
same,IC50,"HepG2-A16-CD81EGFP cells; sheet ""2nd round""",> 10 µM
same,Tox_max_inhibition (%),"HepG2-A16-CD81EGFP cells; sheet ""2nd round""",14%
C[C@@H]1CCCCO[C@H](CN(C)S(=O)(=O)c2ccc(F)cc2)[C@@H](C)CN([C@@H](C)CO)C(=O)c2cc(N(C)C)ccc2O1 [BRD-K27035180-001-01-0],normalized signal at concentration 0.000508053,[1]; first series of columns,0.9801
same,normalized signal at concentration 0.00152416,[1]; first series of columns,1.117
same,normalized signal at concentration 0.00457247,[1]; first series of columns,0.8737
same,normalized signal at concentration 0.0137174,[1]; first series of columns,0.9285
same,normalized signal at concentration 0.0411523,[1]; first series of columns,1.068
same,normalized signal at concentration 0.123457,[1]; first series of columns,0.9867
same,normalized signal at concentration 0.37037,[1]; first series of columns,0.8491
same,normalized signal at concentration 1.11111,[1]; first series of columns,1.048
same,normalized signal at concentration 3.33333,[1]; first series of columns,0.9262
same,normalized signal at concentration 10,[1]; first series of columns,0.8261
same,IC50,[1]; [3],> 10 µM
same,normalized signal at concentration 0.000508053,[1]; [4],0.9613
same,normalized signal at concentration 0.00152416,[1]; [4],1.064
same,normalized signal at concentration 0.00457247,[1]; [4],0.9935
same,normalized signal at concentration 0.0137174,[1]; [4],0.8637
same,normalized signal at concentration 0.0411523,[1]; [4],1.045
same,normalized signal at concentration 0.123457,[1]; [4],0.8684
same,normalized signal at concentration 0.37037,[1]; [4],1.143
same,normalized signal at concentration 1.11111,[1]; [4],0.8369
same,normalized signal at concentration 3.33333,[1]; [4],1.121
same,normalized signal at concentration 10,[1]; [4],0.5603
same,PbLuc_max_inhibition (%),[1]; [5],44%
same,IC50,HepG2-A16-CD81EGFP cells; sheet 2nd round,> 10 µM
same,Tox_max_inhibition (%),HepG2-A16-CD81EGFP cells; [5],10%
C[C@@H]1CCCCO[C@@H](CN(C)S(=O)(=O)c2ccc(F)cc2)[C@@H](C)CN([C@@H](C)CO)C(=O)c2cc(N(C)C)ccc2O1 [BRD-K74261250-001-01-9],normalized signal at concentration 10,[1]; first series of dose-response columns,0.8467
same,normalized signal at concentration 0.000508053,[1]; first series,1.172
same,normalized signal at concentration 0.00152416,[1]; first series,0.9183
same,normalized signal at concentration 0.00457247,[1]; first series,0.77
same,normalized signal at concentration 0.0137174,[1]; first series,1.0389
same,normalized signal at concentration 0.0411523,[1]; first series,0.8236
same,normalized signal at concentration 0.123457,[1]; first series,0.9547
same,normalized signal at concentration 0.37037,[1]; first series,1.005
same,normalized signal at concentration 1.11111,[1]; first series,0.9156
same,normalized signal at concentration 3.33333,[1]; first series,1.13
same,IC50,"[1]; sheet 2nd round, Broad compounds, dose response",> 10 µM
same,normalized signal at concentration 10,[1]; second series of dose-response columns,0.7483
same,normalized signal at concentration 0.000508053,[1]; second series,1.01
same,normalized signal at concentration 0.00152416,[1]; second series,0.834
same,normalized signal at concentration 0.00457247,[1]; second series,1.154
same,normalized signal at concentration 0.0137174,[1]; second series,0.7879
same,normalized signal at concentration 0.0411523,[1]; second series,0.9255
same,normalized signal at concentration 0.123457,[1]; second series,1.124
same,normalized signal at concentration 0.37037,[1]; second series,0.8451
same,normalized signal at concentration 1.11111,[1]; second series,0.9426
same,normalized signal at concentration 3.33333,[1]; second series,1.1
same,PbLuc_max_inhibition (%),[1]; [5],25%
same,IC50,HepG2-A16-CD81EGFP cells; sheet 2nd round,> 10 µM
same,Tox_max_inhibition (%),HepG2-A16-CD81EGFP cells; [5],6.44%
COc1ccc2c3c([nH]c2c1)[C@H](CO)N(Cc1ccccc1)CC31CN(C(=O)c2ccccn2)C1 [BRD-K93348054-001-01-9],normalised signal at concentration 0.000508053 (first series),[1],1.077
same,normalised signal at concentration 0.000508053 (second series),[1],1.157
same,normalised signal at concentration 0.00152416 (first series),[1],0.9906
same,normalised signal at concentration 0.00152416 (second series),[1],0.8767
same,normalised signal at concentration 0.00457247 (first series),[1],0.8635
same,normalised signal at concentration 0.00457247 (second series),[1],1.079
same,normalised signal at concentration 0.0137174 (first series),[1],1.042
same,normalised signal at concentration 0.0137174 (second series),[1],0.9363
same,normalised signal at concentration 0.0411523 (first series),[1],0.9232
same,normalised signal at concentration 0.0411523 (second series),[1],0.9999
same,normalised signal at concentration 0.123457 (first series),[1],0.9966
same,normalised signal at concentration 0.123457 (second series),[1],1.053
same,normalised signal at concentration 0.37037 (first series),[1],0.8299
same,normalised signal at concentration 0.37037 (second series),[1],0.8736
same,normalised signal at concentration 1.11111 (first series),[1],0.8048
same,normalised signal at concentration 1.11111 (second series),[1],0.7
same,normalised signal at concentration 3.33333 (first series),[1],0.6468
same,normalised signal at concentration 3.33333 (second series),[1],0.6466
same,normalised signal at concentration 10 (first series),[1],0.6758
same,normalised signal at concentration 10 (second series),[1],0.621
same,IC50,[1]; [2],> 10 µM
same,PbLuc_max_inhibition (%),"[1]; sheet ""2nd round""",38%
same,IC50,"HepG2-A16-CD81EGFP cells; sheet ""2nd round""",> 10 µM
same,Tox_max_inhibition (%),"HepG2-A16-CD81EGFP cells; sheet ""2nd round""",18%
C[C@H]1CN([C@@H](C)CO)C(=O)CCCn2cc(nn2)CO[C@H]1CN(C)C(=O)Nc1cccc2ccccc12 [BRD-K54628954-001-01-2],normalized signal at concentration 0.000508053,[1]; first series of columns,0.8794
same,normalized signal at concentration 0.00152416,[1]; first series of columns,0.9359
same,normalized signal at concentration 0.00457247,[1]; first series of columns,0.9054
same,normalized signal at concentration 0.0137174,[1]; first series of columns,0.8762
same,normalized signal at concentration 0.0411523,[1]; first series of columns,0.8388
same,normalized signal at concentration 0.123457,[1]; first series of columns,0.9562
same,normalized signal at concentration 0.37037,[1]; first series of columns,0.9801
same,normalized signal at concentration 1.11111,[1]; first series of columns,0.9783
same,normalized signal at concentration 3.33333,[1]; first series of columns,0.874
same,normalized signal at concentration 10,[1]; first series of columns,0.9112
same,IC50,[1]; [3],> 10 µM
same,normalized signal at concentration 0.000508053,[1]; [4],0.8292
same,normalized signal at concentration 0.00152416,[1]; [4],0.8809
same,normalized signal at concentration 0.00457247,[1]; [4],0.7545
same,normalized signal at concentration 0.0137174,[1]; [4],0.9599
same,normalized signal at concentration 0.0411523,[1]; [4],0.9428
same,normalized signal at concentration 0.123457,[1]; [4],0.9557
same,normalized signal at concentration 0.37037,[1]; [4],0.8087
same,normalized signal at concentration 1.11111,[1]; [4],0.9126
same,normalized signal at concentration 3.33333,[1]; [4],0.9018
same,normalized signal at concentration 10,[1]; [4],1.015
same,PbLuc_max_inhibition (%),[1]; [5],25%
same,IC50,HepG2-A16-CD81EGFP cells; sheet 2nd round,> 10 µM
same,Tox_max_inhibition (%),HepG2-A16-CD81EGFP cells; [5],1.76%
C[C@H]1CCCCO[C@@H](CN(C)S(=O)(=O)c2ccc(F)cc2)[C@@H](C)CN([C@@H](C)CO)C(=O)c2cc(N(C)C)ccc2O1 [BRD-K31467596-001-01-7],normalised signal at concentration 0.000508053 (first series),[1],0.9636
same,normalised signal at concentration 0.000508053 (second series),[1],1.196
same,normalised signal at concentration 0.00152416 (first series),[1],0.9009
same,normalised signal at concentration 0.00152416 (second series),[1],1.029
same,normalised signal at concentration 0.00457247 (first series),[1],1.0859
same,normalised signal at concentration 0.00457247 (second series),[1],1.054
same,normalised signal at concentration 0.0137174 (first series),[1],0.8351
same,normalised signal at concentration 0.0137174 (second series),[1],0.885
same,normalised signal at concentration 0.0411523 (first series),[1],0.8724
same,normalised signal at concentration 0.0411523 (second series),[1],1.048
same,normalised signal at concentration 0.123457 (first series),[1],0.8924
same,normalised signal at concentration 0.123457 (second series),[1],0.8988
same,normalised signal at concentration 0.37037 (first series),[1],0.8075
same,normalised signal at concentration 0.37037 (second series),[1],0.9035
same,normalised signal at concentration 1.11111 (first series),[1],1.0319
same,normalised signal at concentration 1.11111 (second series),[1],1.046
same,normalised signal at concentration 3.33333 (first series),[1],0.9413
same,normalised signal at concentration 3.33333 (second series),[1],0.9885
same,normalised signal at concentration 10 (first series),[1],0.7997
same,normalised signal at concentration 10 (second series),[1],0.6635
same,IC50,[1]; [2],> 10 µM
same,PbLuc_max_inhibition (%),"[1]; sheet ""2nd round""",34%
same,IC50,"HepG2-A16-CD81EGFP cells; sheet ""2nd round""",> 10 µM
same,Tox_max_inhibition (%),"HepG2-A16-CD81EGFP cells; sheet ""2nd round""",19%
